Laboratory results: ChEMBL document CHEMBL4229451, “Recent advances in peptidomimetics antagonists targeting estrogen receptor α-coactivator interaction in cancer therapy” (Bioorg Med Chem Lett, 2018)
Starred links: 1 amine or outer side, 2 acyl side, 3 side chain; linkers in the order of their positions; H or OH if unused. Positions of bridges follow the written chain, without caps; N, C: chain ends. Non-standard residues stand in square brackets, D forms with d. Residues, ends and D or L forms follow the SMILES beside them. X1 = O=C([C@H](CCC/C=C/[*:3])N[*:1])[*:2]

Experiments:
Estrogen receptor [1] = molecular target: T1, Estrogen receptor (Homo sapiens, UniProt P03372); experiment: Binding affinity to recombinant human ERalpha LBD (301 to 553 residues) expressed in Escherichia coli BL21(DE3) using FAM-labelled compound after 1 hr by fluorescence polarization method
T1 sequence (P03372 whole entry): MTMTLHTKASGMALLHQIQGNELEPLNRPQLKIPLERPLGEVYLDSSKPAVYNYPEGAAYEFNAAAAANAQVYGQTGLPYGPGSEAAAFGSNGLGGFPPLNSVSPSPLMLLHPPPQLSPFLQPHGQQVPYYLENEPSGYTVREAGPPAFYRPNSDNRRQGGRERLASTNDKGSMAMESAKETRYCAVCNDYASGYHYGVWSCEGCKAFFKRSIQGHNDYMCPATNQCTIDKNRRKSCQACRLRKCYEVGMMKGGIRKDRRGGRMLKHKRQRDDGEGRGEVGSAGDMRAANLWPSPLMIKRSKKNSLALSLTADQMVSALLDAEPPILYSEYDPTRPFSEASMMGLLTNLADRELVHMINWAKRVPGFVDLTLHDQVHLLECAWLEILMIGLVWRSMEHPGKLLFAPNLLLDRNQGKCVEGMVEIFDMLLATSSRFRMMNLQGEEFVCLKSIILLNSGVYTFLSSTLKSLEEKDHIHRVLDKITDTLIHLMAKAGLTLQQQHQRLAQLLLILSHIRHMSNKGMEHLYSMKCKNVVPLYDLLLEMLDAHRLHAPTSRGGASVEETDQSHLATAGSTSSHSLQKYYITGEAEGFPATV

Estrogen receptor beta [2] = molecular target: Estrogen receptor beta (Homo sapiens, UniProt Q92731, C334S/C369S/C481S); experiment: Binding affinity to recombinant human ERbeta LBD (259 to 498 residues) C334S/C369S/C481S triple mutant expressed in Escherichia coli BL21(DE3) using FAM-labelled compound after 1 hr by fluorescence polarization method
[3] = Half life in rabbit serum at 100 uM by RP-HPLC method; assay type: ADME, cell-free, Oryctolagus cuniculus
Estrogen receptor [4] = molecular target: T1, Estrogen receptor; experiment: Displacement of THC-ketone from human ERalpha LBD (304 to 554 residues) expressed in Escherichia coli BL21(DE3) after 1 hr by fluorescence assay
Estrogen receptor [5] = molecular target: T1, Estrogen receptor; experiment: Displacement of FAM-LTERHKILHRLLQEGSPSD from ERalpha (unknown origin) (302 to 552 residues) expressed in Escherichia coli rosetta (DE3) after 1 hr by fluorescence polarization assay
Estrogen receptor beta [6] = molecular target: Estrogen receptor beta (Homo sapiens, UniProt Q92731); experiment: Displacement of FAM-LTERHKILHRLLQEGSPSD from ERbeta (unknown origin) (260 to 502 residues) expressed in Escherichia coli rosetta (DE3) after 1 hr by fluorescence polarization assay
Sequence of Estrogen receptor beta (Homo sapiens, UniProt Q92731) (Q92731 whole entry, the tested form may be a part): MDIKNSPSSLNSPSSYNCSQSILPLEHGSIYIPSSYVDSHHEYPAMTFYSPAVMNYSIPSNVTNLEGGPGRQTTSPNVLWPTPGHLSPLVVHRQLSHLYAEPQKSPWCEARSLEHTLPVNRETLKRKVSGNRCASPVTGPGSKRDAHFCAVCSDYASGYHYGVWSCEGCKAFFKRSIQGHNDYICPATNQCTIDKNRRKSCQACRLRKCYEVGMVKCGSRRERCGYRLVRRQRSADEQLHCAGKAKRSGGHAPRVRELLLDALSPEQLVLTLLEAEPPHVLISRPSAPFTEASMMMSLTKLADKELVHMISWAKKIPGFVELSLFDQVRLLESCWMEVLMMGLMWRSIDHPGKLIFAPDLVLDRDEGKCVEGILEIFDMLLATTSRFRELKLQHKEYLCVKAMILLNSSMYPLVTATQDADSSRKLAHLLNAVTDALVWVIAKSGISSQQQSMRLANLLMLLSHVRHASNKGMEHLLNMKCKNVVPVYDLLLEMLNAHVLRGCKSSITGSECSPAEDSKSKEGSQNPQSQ

Sequence of Estrogen receptor beta (Homo sapiens, UniProt Q92731, C334S/C369S/C481S) (Q92731 whole entry C334S/C369S/C481S, the tested form may be a part): as the sequence (Q92731 whole entry, the tested form may be a part) above, with C334S, C369S, C481S counted along it

Row | Compound | Ki (Estrogen receptor [5]) | Ki (Estrogen receptor beta [6]) | further results
1 | CC[C@H](C)[C@@H]1NC(=O)[C@@H](NC(=O)[C@H](CCCNC(=N)N)NC(=O)[C@H](CCCCN)NC(=O)[C@@H](N)Cc2c[nH]c3ccccc23)CS/C=C/CCC[C@@H](C(=O)N[C@@H](CC(C)C)C(=O)N[C@@H](CC(C)C)C(=O)N[C@@H](CCC(N)=O)C(=O)N[C@@H](CCC(=O)O)C(N)=O)NC(=O)[C@H](CCCNC(=N)N)NC(=O)[C@H](CC(C)C)NC1=O (H-WKRCILR[X1]LLQE-NH2; thioether 4-8) | – | – | Kd (Estrogen receptor [1]): 101 nM; Kd (Estrogen receptor beta [2]): 178 nM; half-life at 100 µM [3]: 18.2 h
2 | CC[C@H](C)[C@H](NC(=O)[C@H](CCCCN)NC(=O)[C@H](Cc1cnc[nH]1)NC(=O)[C@H](CCCNC(=N)N)NC(=O)[C@H](CCC(=O)O)NC(=O)[C@@H](NC(=O)[C@H](CC(C)C)NC(=O)[C@@H](N)CS)[C@@H](C)O)C(=O)N[C@@H](CC(C)C)C(=O)N[C@@H](Cc1cnc[nH]1)C(=O)N[C@@H](CCCNC(=N)N)C(=O)N[C@@H](CC(C)C)C(=O)N[C@@H](CC(C)C)C(=O)N[C@@H](CCC(N)=O)C(=O)N[C@@H](CCC(=O)O)C(N)=O (H-CLTERHKILHRLLQE-NH2) | – | – | Kd (Estrogen receptor [4]): 900 nM
3 | CSCC[C@H](NC(=O)[C@H](CC(C)C)NC(=O)[C@H](CC(C)C)NC(=O)[C@@H]1CCCN1C(=O)[C@@H](N)Cc1cnc[nH]1)C(=O)N[C@@H](CCCNC(=N)N)C(=O)N[C@@H](CC(C)C)C(=O)N[C@@H](CC(C)C)C(=O)N[C@@H](CC(C)C)C(=O)N[C@@H](CO)C(=O)N1CCC[C@H]1C(N)=O (H-HPLLMRLLLSP-NH2) | 185 nM | 25 nM | –
4 | CSCC[C@H](NC(=O)[C@H](CC(C)C)NC(=O)[C@H](CC(C)C)NC(=O)[C@@H]1CCCN1C(=O)[C@@H](N)Cc1cnc[nH]1)C(=O)N[C@@H](CCCNC(=N)N)C(=O)N[C@@H](CC(C)C)C(=O)N[C@@H](CC(C)C)C(=O)N[C@@H](Cc1cnc[nH]1)C(=O)N[C@@H](Cc1cnc[nH]1)C(=O)N1CCC[C@H]1C(=O)N[C@@H](CO)C(N)=O (H-HPLLMRLLHHPS-NH2) | 1540 nM | 3640 nM | –
